The source of these data is PubChem BioAssay (NCI).

Test systems include SR leukemia; U251 CNS; COLO 205 colon; PC-3 prostate; TK-10 renal; SW-620 colon; SF-268 CNS; OVCAR-5 ovarian; HT29 colon; HCT-15 colon.
Common to all, as to assay: inhibition of tumour cell growth, NCI panel, 48 h

SMILES strings stand for the structures.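 In this assay, cells in 96-well plates receive the compound at five concentrations for 48 hours. Endpoints are linearly interpolated between the surrounding concentrations. GI50: concentration for 50% inhibition of growth. TGI marks complete inhibition of growth.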

`O=C(c1ccco1)c1c(C(F)(F)F)n([O-])c2cc(Cl)c(Cl)cc2[n+]1=O`: the GI50 was 49.7 nM in the test on SR leukemia; 705 nM with U251 CNS; 1820 nM in the test on COLO 205 colon; 230 nM with PC-3 prostate; 943 nM in the test with TK-10 renal; 873 nM in the test on SW-620 colon. Also, the GI50 with SF-268 CNS was 236 nM; in the test on OVCAR-5 ovarian it was 935 nM; in the test with HT29 colon it was 1220 nM; with HCT-15 colon, 233 nM. Moreover, the TGI is 50000 nM in the test with SR leukemia; 1430 nM with U251 CNS; 18300 nM in the test with COLO 205 colon; 1010 nM in the test on PC-3 prostate; 1730 nM in the test with TK-10 renal; 2480 nM in the test with SW-620 colon. The TGI with SF-268 CNS was 774 nM; in the test with OVCAR-5 ovarian, 1760 nM; with HT29 colon, 17300 nM; in the test on HCT-15 colon it was 654 nM.

Turning to `COc1ccc2c(c1)OCC1c3cc(OC)ccc3OC21` (stereo not given), the GI50 in the test with SR leukemia was 1440 nM; with U251 CNS, 58000 nM; with COLO 205 colon, 38200 nM; in the test on PC-3 prostate, 91200 nM; with TK-10 renal, above 100000 nM; in the test on SW-620 colon it was above 100000 nM. Besides, the GI50 was 50500 nM with SF-268 CNS, 80100 nM in the test with OVCAR-5 ovarian, 34900 nM with HT29 colon and 44900 nM in the test on HCT-15 colon. In addition, the TGI in the test on SR leukemia was 29600 nM; in the test with U251 CNS, above 100000 nM; with COLO 205 colon, above 100000 nM; with PC-3 prostate it was above 100000 nM; with TK-10 renal, above 100000 nM; in the test on SW-620 colon, above 100000 nM. The TGI in the test with SF-268 CNS, in the test with OVCAR-5 ovarian, in the test on HT29 colon and in the test with HCT-15 colon was above 100000 nM in each case.

As to `NC1=Nc2cc(OCCCCN3Cc4ccccc4C3)c(OCC3CC3)cc2C12CCCC2`, the GI50 in the test with SR leukemia is 1610 nM; in the test with U251 CNS, 1530 nM; in the test on COLO 205 colon it was 1450 nM; with PC-3 prostate it was 1690 nM; in the test on TK-10 renal it was 1750 nM; in the test on SW-620 colon, 1700 nM. In addition, the GI50 in the test on SF-268 CNS was 1780 nM; in the test with OVCAR-5 ovarian, 2300 nM; in the test with HT29 colon, 1260 nM; in the test on HCT-15 colon it was 1480 nM. Besides, the TGI in the test on SR leukemia was found to be 4480 nM; in the test on U251 CNS it was 3110 nM; in the test with COLO 205 colon, 3110 nM; in the test with PC-3 prostate, 7810 nM; in the test on TK-10 renal, 3450 nM; with SW-620 colon, 3480 nM. The TGI turned out to be 6420 nM in the test on SF-268 CNS, 6400 nM in the test on OVCAR-5 ovarian, 3130 nM with HT29 colon and 3590 nM in the test with HCT-15 colon.

Take `Cc1n[nH]c(C)c1-c1c(C)n[nH]c1C`: the GI50 was 1210 nM in the test with SR leukemia; 1640 nM in the test on U251 CNS; 1920 nM with COLO 205 colon; 1510 nM in the test on PC-3 prostate; 2890 nM in the test with TK-10 renal; 1870 nM with SW-620 colon. The GI50 is 2280 nM with SF-268 CNS, 2130 nM in the test on OVCAR-5 ovarian, 2010 nM with HT29 colon and 1830 nM in the test with HCT-15 colon. The TGI was above 100000 nM in the test on SR leukemia; 3760 nM in the test on U251 CNS; 4230 nM in the test on COLO 205 colon; 4010 nM in the test on PC-3 prostate; 7200 nM with TK-10 renal; 4380 nM in the test on SW-620 colon. Further, the TGI in the test with SF-268 CNS stood at 6910 nM; in the test with OVCAR-5 ovarian, 4850 nM; in the test with HT29 colon, 4810 nM; in the test with HCT-15 colon it was 4530 nM.

For the compound `CC(C)OC(=O)OCOP(=O)(OCOC(=O)OC(C)C)C1CCCN(O)C1=O` (stereo not given), the GI50 with SR leukemia is 1250 nM; in the test on U251 CNS, 1760 nM; in the test on COLO 205 colon, 3710 nM; in the test with PC-3 prostate, 7550 nM; with TK-10 renal, 1540 nM; with SW-620 colon, 1370 nM. In addition, the GI50 in the test on SF-268 CNS is 3070 nM; in the test with OVCAR-5 ovarian, 5250 nM; in the test on HT29 colon, 571 nM; in the test with HCT-15 colon, 1850 nM. Also, the TGI in the test on SR leukemia, in the test with U251 CNS, in the test with COLO 205 colon, in the test with PC-3 prostate, in the test with TK-10 renal and in the test with SW-620 colon was above 100000 nM throughout. Moreover, the TGI with SF-268 CNS, in the test on OVCAR-5 ovarian, in the test on HT29 colon and with HCT-15 colon was above 100000 nM in each case.

Regarding `COc1cnc2c(c1)C(=O)c1c-2n(CCCN2CCNCC2)c(=O)c2cc(F)ccc12`, the GI50 in the test on SR leukemia was 50 nM; with U251 CNS, 84.1 nM; in the test with COLO 205 colon it was 150 nM; in the test with PC-3 prostate, 596 nM; in the test with TK-10 renal, 267 nM; in the test with SW-620 colon it was 110 nM. Further, the GI50 in the test with SF-268 CNS was 282 nM; in the test on OVCAR-5 ovarian, 334 nM; with HT29 colon, 150 nM; in the test on HCT-15 colon it was 126 nM. Moreover, the TGI was 863 nM in the test with SR leukemia; 1050 nM in the test on U251 CNS; 1440 nM with COLO 205 colon; 2510 nM with PC-3 prostate; 1430 nM with TK-10 renal; 1460 nM with SW-620 colon. Also, the TGI amounted to 1860 nM in the test on SF-268 CNS, 1510 nM in the test on OVCAR-5 ovarian, 680 nM in the test on HT29 colon and 1300 nM in the test on HCT-15 colon.

As to `CN(C)c1ccc(-c2cc(-c3cccc(NS(C)(=O)=O)c3)nc(N)c2C#N)cc1`, the GI50 was 35.9 nM in the test on SR leukemia; 41.8 nM with U251 CNS; 25 nM with COLO 205 colon; 32.7 nM in the test on PC-3 prostate; 73.5 nM in the test on TK-10 renal; 41.1 nM in the test on SW-620 colon. For the same compound, the GI50 was 56.1 nM with SF-268 CNS, 121 nM in the test on OVCAR-5 ovarian, 31.9 nM in the test on HT29 colon and 36.2 nM in the test on HCT-15 colon. Besides, the TGI is 26700 nM in the test on SR leukemia; 20400 nM with U251 CNS; 72.9 nM with COLO 205 colon; 13300 nM in the test with PC-3 prostate; above 55200 nM in the test with TK-10 renal; 18600 nM in the test on SW-620 colon. Besides, the TGI in the test with SF-268 CNS was 28900 nM; in the test with OVCAR-5 ovarian it was above 74800 nM; in the test with HT29 colon, 457 nM; with HCT-15 colon, 11800 nM.
